Test results published in patent US11274092B2, “Potassium channel inhibitors” (ACESION PHARMA ApS, priority 2016, dated 2022).

Target: T1, human SK3 channel (hKCa2.3) (Homo sapiens, UniProt Q9UGI6)
T1 construct: expressed in transfected cells
Test: Automated whole cell patch-clamp (QPatch 16 HT), inhibition of SK3 current
Type: cell-based
Conditions: HEK-293 cells stably expressing hKCa2.3; symmetrical K+ solutions, free calcium 400 nM; effects normalized to N-methyl bicuculline
Procedure: Automated whole cell patch-clamp recordings were performed using a QPatch 16 HT system and single-hole Qplates (Biolin Scientific, Sophion, Denmark) on HEK-293 cells stably expressing the human SK3 channel (hKCa2.3). Cells were cultured and prepared for experiments using normal cell culturing procedures. A total of 4-5 million cells were used per experiment. The Qpatch automatically generates giga sealing, whole-cell formation, compound application and recording of current. hKCa2.3 currents were recorded in symmetrical K^+ solutions, with an intracellular solution consisting of in mM: KCl 108; KOH/EGTA (ethylene glycol-bis(2-aminoethylether)-N,N,N′,N′-tetraacetic acid) 31.25/10; CaCl2) 8.1; MgCl2 1.2; HEPES (2-[4-(2-hydroxyethyl)piperazin-1-yl]ethanesulfonic acid) 10; KOH 15, pH adjusted to pH=7.2 with HCl. The free calcium concentration was calculated to 400 nM. The extracellular solution consisted of in mM: KCl 150; CaCl2) 0.1; MgCl2 3; HEPES 10; Glucose 10, pH=7.4 with KOH. The cells were held at 0 mV and hKCa2.3 currents were elicited by a linear voltage ramp from […] (200 ms in duration) applied every 5th second. The compound application protocol consisted of 12 recording periods lasting from 50-200 s: 1) Baseline recordings in extracellular solution; 2) Application of the positive control N-methyl bicuculline (100 μM), which is characterized by full efficacy, fast on- and off-rate; 3-4) Wash-out; 5-9) Increasing concentrations of test compound to establish an IC50 value; 10-11) Wash-out; 12) positive control with compound NS8593 (N-[(1R)-1,2,3,4-tetrahydro-1-naphthalenyl]-1H-benzimidazol-2-amine) (1 μM). Data were sampled at 10 kHz, 4th order Bessel filter, cut-off frequency 3 kHz. Currents were compensated for run-down. Potency was quantified as the concentration needed to inhibit half of the SK channel activity and reported as an IC50 value. All effects of compounds of the present invention as tested were normalized to the observed inhibitory effect of N-methyl bicuculline.

SMILES | IC50 [µM]
COCCNC(=O)CC(Nc1nc2ccccc2[nH]1)c1cccc(OC(F)(F)F)c1 (stereo not drawn) [Example 84, 3-[(1H-1,3-benzodiazol-2-yl)amino]-N-(2-methoxyethyl)-3-[3-(trifluoromethoxy)phenyl]propanamide] | < 10
CN(C)CCN(C)C(=O)C(Nc1nc2ccccc2[nH]1)c1cccc(C(F)(F)F)c1 (stereo not drawn) [Example 25, 2-[(1H-1,3-benzodiazol-2-yl)amino]-N-[2-(dimethylamino)ethyl]-N-methyl-2-[3-(trifluoromethyl)phenyl]acetamide] | 10 to 100
COC[C@H](NC(=O)CC(Nc1nc2ccccc2[nH]1)c1cccc(C(F)(F)F)c1)c1ccccc1 (single isomer, unassigned) [Example 69a] | < 10
N#CCNC(=O)CC(Nc1nc2ccccc2[nH]1)c1cccc(OC(F)(F)F)c1 (stereo not drawn) [Example 85, 3-[(1H-1,3-benzodiazol-2-yl)amino]-N-(cyanomethyl)-3-[3-(trifluoromethoxy)phenyl]propanamide] | < 10
COCCNC(=O)CC(Nc1nc2c(C)c(F)ccc2[nH]1)c1cccc(C(F)(F)F)c1 (stereo not drawn) [Example 96, 3-[(5-fluoro-4-methyl-1H-1,3-benzodiazol-2-yl)amino]-N-(2-methoxyethyl)-3-[3-(trifluoromethyl)phenyl]propanamide] | 10 to 100
NCCNC(=O)C(Nc1nc2ccccc2[nH]1)c1cccc(C(F)(F)F)c1 (stereo not drawn) [Example 24, N-(2-aminoethyl)-2-[(1H-1,3-benzodiazol-2-yl)amino]-2-[3-(trifluoromethyl)phenyl]acetamide] | 10 to 100
O=C(CC(Nc1nc2ccccc2[nH]1)c1cccc(C(F)(F)F)c1)NCCCO (stereo not drawn) [Example 16, 3-[(1H-1,3-benzodiazol-2-yl)amino]-N-(3-hydroxypropyl)-3-[3-(trifluoromethyl)phenyl]propanamide] | 10 to 100
CCN(CCO)C(=O)C(Cc1cccc(C(F)(F)F)c1)Nc1nc2ccccc2[nH]1 (stereo not drawn) [Example 64, 2-[(1H-1,3-benzodiazol-2-yl)amino]-N-ethyl-N-(2-hydroxyethyl)-3-[3-(trifluoromethyl)phenyl]propanamide] | 10 to 100
CC(C)S(=O)(=O)N1CCN(C(=O)C(Nc2nc3ccccc3[nH]2)c2cccc(C(F)(F)F)c2)CC1 (stereo not drawn) [Example 33, 2-[(1H-1,3-benzodiazol-2-yl)amino]-1-[4-(propane-2-sulfonyl)piperazin-1-yl]-2-[3-(trifluoromethyl)phenyl]ethan-1-one] | 10 to 100
COCCNC(=O)CC(Nc1nc2ccccc2[nH]1)c1cccc(SC(F)(F)F)c1 (stereo not drawn) [Example 82, 3-[(1H-1,3-benzodiazol-2-yl)amino]-N-(2-methoxyethyl)-3-{3-[(trifluoromethyl)sulfanyl]phenyl}propanamide] | < 10
O=C(CC(Nc1nc2ccccc2[nH]1)c1cccc(C(F)(F)F)c1)N1CC[C@@H](O)C1 (stereo partly drawn) [Example 14, 3-[(1H-1,3-benzodiazol-2-yl)amino]-1-[(3R)-3-hydroxypyrrolidin-1-yl]-3-[3-(trifluoromethyl)phenyl]propan-1-one] | 10 to 100
O=C(C(Nc1nc2ccccc2[nH]1)c1cccc(C(F)(F)F)c1)N1CCC1 (single isomer, unassigned; (+)) [Example 34a, (+)1-(azetidin-1-yl)-2-[(1H-1,3-benzodiazol-2-yl)amino]-2-[3-(trifluoromethyl)phenyl]ethan-1-one] | < 10
O=C(CC(Nc1nc2ccccc2[nH]1)c1cccc(C(F)(F)F)c1)NCc1ccon1 (stereo not drawn) [Example 71, 3-[(1H-1,3-benzodiazol-2-yl)amino]-N-(1,2-oxazol-3-ylmethyl)-3-[3-(trifluoromethyl)phenyl]propanamide] | < 10
Cc1noc(C)c1CCNC(=O)CC(Nc1nc2ccccc2[nH]1)c1cccc(C(F)(F)F)c1 (stereo not drawn) [Example 74, 3-[(1H-1,3-benzodiazol-2-yl)amino]-N-[2-(dimethyl-1,2-oxazol-4-yl)ethyl]-3-[3-(trifluoromethyl)phenyl]propanamide] | < 10
O=C(C(Nc1nc2ccccc2[nH]1)c1cccc(C(F)(F)F)c1)N1CCNCC1 (stereo not drawn) [Example 26, 2-[(1H-1,3-benzodiazol-2-yl)amino]-1-(piperazin-1-yl)-2-[3-(trifluoromethyl)phenyl]ethan-1-one] | 10 to 100
O=C(CC(Nc1nc2ccccc2[nH]1)c1cccc(SC(F)(F)F)c1)NCc1nc2ccccc2o1 (stereo not drawn) [Example 89, 3-[(1H-1,3-benzodiazol-2-yl)amino]-N-(1,3-benzoxazol-2-ylmethyl)-3-{3-[(trifluoromethyl)sulfanyl]phenyl}propanamide] | < 10
COCCNC(=O)CC(Nc1nc2cc(F)c(F)cc2[nH]1)c1cccc(C(F)(F)F)c1 (stereo not drawn) [Example 95, 3-[(5,6-difluoro-1H-1,3-benzodiazol-2-yl)amino]-N-(2-methoxyethyl)-3-[3-(trifluoromethyl)phenyl]propanamide] | 10 to 100
CC(C)(O)CNC(=O)CC(Nc1nc2ccccc2[nH]1)c1cccc(C(F)(F)F)c1 (single isomer, unassigned; (-)) [Example 4a, (−) 3-[(1H-1,3-benzodiazol-2-yl)amino]-N-(2-hydroxy-2-methylpropyl)-3-[3-(trifluoromethyl)phenyl]propanamide] | 10 to 100
COC(=O)N1CCN(C(=O)C(Nc2nc3ccccc3[nH]2)c2cccc(C(F)(F)F)c2)CC1 (stereo not drawn) [Example 61, Methyl 4-{2-[(1H-1,3-benzodiazol-2-yl)amino]-2-[3-(trifluoromethyl)phenyl]acetyl}piperazine-1-carboxylate] | < 10
O=C(CC(Nc1nc2ccccc2[nH]1)c1cccc(C(F)(F)F)c1)NCCNS(=O)(=O)Cc1ccccc1 (stereo not drawn) [Example 12, 3-[(1H-1,3-benzodiazol-2-yl)amino]-N-[2-(phenylmethanesulfonamido)ethyl]-3-[3-(trifluoromethyl)phenyl]propanamide] | 10 to 100
CCNC(=O)OCCNC(=O)CC(Nc1nc2ccccc2[nH]1)c1cccc(C(F)(F)F)c1 (stereo not drawn) [Example 63, 2-{3-[(1H-1,3-benzodiazol-2-yl)amino]-3-[3-(trifluoromethyl)phenyl]propanamido}ethyl N-ethylcarbamate] | < 10
CSCCNC(=O)CC(Nc1nc2ccccc2[nH]1)c1cccc(C(F)(F)F)c1 (stereo not drawn) [Example 1, 3-[(1H-1,3-benzodiazol-2-yl)amino]-N-[2-(methylsulfanyl)ethyl]-3-[3-(trifluoromethyl)phenyl]propanamide] | < 10
COC(=O)CN(C)C(=O)CC(Nc1nc2ccccc2[nH]1)c1cccc(C(F)(F)F)c1 (stereo not drawn) [Example 57, Methyl 2-{3-[(1H-1,3-benzodiazol-2-yl)amino]-N-methyl-3-[3-(trifluoromethyl)phenyl]propanamido}acetate] | < 10
O=C(CC(Nc1nc2ccccc2[nH]1)c1cccc(C(F)(F)F)c1)NCc1nccs1 (stereo not drawn) [Example 75, 3-[(1H-1,3-benzodiazol-2-yl)amino]-N-(1,3-thiazol-2-ylmethyl)-3-[3-(trifluoromethyl)phenyl]propanamide] | < 10
Cc1cc(C(CC(=O)NCC#N)Nc2nc3ccccc3[nH]2)cc(C)c1F (stereo not drawn) [Example 86, 3-[(1H-1,3-benzodiazol-2-yl)amino]-N-(cyanomethyl)-3-(4-fluoro-3,5-dimethylphenyl)propanamide] | < 10
CCc1cc(C(CC(=O)N(CC)CCO)Nc2nc3ccccc3[nH]2)ccc1F (single isomer, unassigned; (-)) [Example 65a, (−)3-[(1H-1,3-benzodiazol-2-yl)amino]-N-ethyl-3-(3-ethyl-4-fluorophenyl)-N-(2-hydroxyethyl)propanamide] | < 10
CCOC(=O)CNC(=O)CC(Nc1nc2ccccc2[nH]1)c1cccc(C(F)(F)F)c1 (stereo not drawn) [Example 23, Ethyl 2-{3-[(1H-1,3-benzodiazol-2-yl)amino]-3-[3-(trifluoromethyl)phenyl]propanamido}acetate] | < 10
O=C(CC(Nc1nc2ccccc2[nH]1)c1cccc(C(F)(F)F)c1)NCCOC(F)(F)F (single isomer, unassigned) [Example 67a, 3-[(1H-1,3-benzodiazol-2-yl)amino]-N-[2-(trifluoromethoxy)ethyl]-3-[3-(trifluoromethyl)phenyl]propanamide] | < 10
COC(=O)CN(C)C(=O)CC(Nc1nc2ccccc2[nH]1)c1cccc(C(F)(F)F)c1 (single isomer, unassigned; (-)) [Example 57a, (−)Methyl 2-{3-[(1H-1,3-benzodiazol-2-yl)amino]-N-methyl-3-[3-(trifluoromethyl)phenyl]propanamido}acetate] | < 10
COCC(=O)NCCNC(=O)CC(Nc1nc2ccccc2[nH]1)c1cccc(C(F)(F)F)c1 (stereo not drawn) [Example 62, 3-[(1H-1,3-benzodiazol-2-yl)amino]-N-[2-(2-methoxyacetamido)ethyl]-3-[3-(trifluoromethyl)phenyl]propanamide] | 10 to 100
